Several values for one entry are separate records, joined by “and”; a condition that tells them apart may be missing. Equal entries are not always repeated. Where two headings read alike, the source gives them in different places.
Columns and labels:
AChE enzyme = tested on: AChE enzyme; set-up: method as in doi:10.25135/rnp.71.17.04.074; conditions: 250 µg/mL; cited from earlier work
AChE = molecular target: T1, AChE (Electrophorus electricus, UniProt O42275); experiment: biochemical; conditions: for IC50 / % Inhibition of AChE: mean ± SD; for inhibition at 0.01 µM / inhibition at 0.1 µM / inhibition at 1 µM / inhibition at 10 µM: read-out: % Inhibition of AChE
T1 construct: purchased
T1 sequence (O42275 24-633): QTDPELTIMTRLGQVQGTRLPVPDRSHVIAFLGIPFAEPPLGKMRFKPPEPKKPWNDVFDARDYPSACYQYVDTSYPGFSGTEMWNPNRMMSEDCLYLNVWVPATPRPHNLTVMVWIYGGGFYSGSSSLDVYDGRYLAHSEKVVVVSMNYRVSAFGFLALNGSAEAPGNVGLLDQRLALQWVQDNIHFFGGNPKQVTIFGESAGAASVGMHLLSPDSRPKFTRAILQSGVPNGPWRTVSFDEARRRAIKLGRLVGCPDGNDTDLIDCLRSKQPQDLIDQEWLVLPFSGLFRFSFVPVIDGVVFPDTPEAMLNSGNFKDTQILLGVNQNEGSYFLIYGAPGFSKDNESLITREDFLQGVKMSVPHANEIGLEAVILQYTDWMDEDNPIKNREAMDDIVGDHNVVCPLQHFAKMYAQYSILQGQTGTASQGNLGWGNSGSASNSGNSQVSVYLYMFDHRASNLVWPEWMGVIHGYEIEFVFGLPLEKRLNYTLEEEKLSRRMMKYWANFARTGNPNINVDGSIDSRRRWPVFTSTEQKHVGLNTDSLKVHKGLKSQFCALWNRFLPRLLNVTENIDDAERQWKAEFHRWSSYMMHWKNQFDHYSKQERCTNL
Method: The preparation of the sample was the same as has been previously described. The AChE-inhibitory effect of the furofuranoid lignans 1–5 was determined using an AChE inhibitor screening kit (the Quanti-Chrome assay kit). […] The 96-well plate reaction was prepared according to the manufacturer’s protocol.

TERT = TERT enzyme (telomerase activation) assay in normal melanocyte HFB4 cells; type: cell-based, human; conditions: 1 μM; for TERT Concentration Mean ± SD / Relative Increase (TERT vs untreated HFB4 control): 24 h; for Relative Increase (TERT vs untreated HFB4 control): control = 1
Method: In the present study, we assessed the in vitro anti-ageing activity of the lignan-type compounds 1–5 utilizing a TERT enzyme assay (Table 3). The normal melanocyte cell line (HFB4) was used as a model system in this study, and curcumin (1 μM) was used as a standard telomerase activator [47]. According to the report, curcumin has made it possible for model organisms to live longer, reduced the signs of ageing, and slowed the onset of age-related illnesses where cellular senescence is a direct cause.
TERT activity assay was used for in vitro investigation of the compound’s anti-ageing properties. The HFB4 (VACSERA, Giza, Egypt) was used as a model system for the study of amplification of telomers in response to our test compounds and curcumin. HFB4 cells were cultivated in RPMI-1640 medium enriched with heat-inactivated FBS (10%) and penicillin–streptomycin (100 U/mL). HFB4 cells (2 × 10^5) were plated and incubated in a 5% CO2 humidified atmosphere at 37 °C for 24 h. The cells were then left untreated (negative control), treated with tested compounds and with 1 μM curcumin, a standard activator for TERT. The supernatant from the various conditions was collected after 24 h, centrifuged for 20 min at 1000× g at 4 ℃, and immediately submitted for the assay as previously described. The different supernatants were added separately to a microtiter plate pre-coated with a TERT-specific antibody (Ab) and then incubated with a TERT-specific biotin detection Ab. Then, streptavidin/horseradish peroxidase (SABC) conjugate was added to all wells and incubated. […] The optical density (OD) was measured spectrophotometrically at 450 nm. The TERT concentration was determined by comparing the OD of the samples with the standard curve prepared according to the instructions of the manufacturer. The relative OD450 = (OD450 of the reaction well) − (OD450 of no treatment well). The standard curve was plotted by drawing the relative OD450 of each standard solution (Y) versus the respective concentration of the standard solution (X). The human TERT concentration of the samples was interpolated from the standard curve.

[1] = tested on: butyrylcholinesterase enzyme; set-up: method as in doi:10.25135/rnp.71.17.04.074; conditions: 250 µg/mL; cited from earlier work
acetylcholinesterase = conditions: concentration-dependent; cited from earlier work
[2] = tested on: hippocampal long-term potentiation; set-up: method as in PMID 30685474; conditions: 50 μM; cited from earlier work
neuro2a cells = tested on: neuro2a cells; set-up: method as in PMID 30685474; conditions: cited from earlier work
memory decline = conditions: 25 mg/kg, p.o.; dose-dependent; cited from earlier work
[3] = read-out: IC50 (AChE inhibition)

In the case of COc1cc([C@H]2OC[C@H]3[C@@H]2CO[C@@H]3c2ccc(O[C@@H]3O[C@H](CO)[C@@H](O)[C@H](O)[C@H]3O)c(OC)c2)ccc1O [Compound 5, pinoresinol 4-O-β-D-glucoside], the “inhibitory effect on the AChE enzyme” value (AChE enzyme) is given as 20.17 ± 0.44%, the IC50 (AChE; [3]) is given as 64.5 nM and 64 nM and the inhibition at 0.01 µM (AChE) is given as 28 ± 3%. It also gave an inhibition at 0.1 µM (AChE) of 59 ± 4%, an inhibition at 1 µM (AChE) of 79 ± 1% and an inhibition at 10 µM (AChE) of 88 ± 3%. The “increase in telomerase activity compared to untreated cells” value (shortened to “increase in telomerase activity”) (TERT) was 1.66 fold, the “TERT Concentration Mean ± SD” value (TERT) was 2.8 ± 0.09 ng/mL and the “Relative Increase (TERT vs untreated HFB4 control)” value (from here on “Relative Increase”) (TERT) was 1.66. The “inhibitory effect on the butyrylcholinesterase enzyme” value [1] was 11.02 ± 0.35%.

In the case of COc1cc(/C=C/C(=O)CC(=O)/C=C/c2ccc(O)c(OC)c2)ccc1O [Curcumin, curcumin, reference compound], the “increase in telomerase activity” value (TERT) is reported as 1.62 fold, the “TERT Concentration Mean ± SD” value (TERT) is reported as 2.8 ± 0.03 ng/mL and the “Relative Increase” value (TERT) is reported as 1.62.

With COc1cc([C@H]2OC[C@H]3[C@@H]2CO[C@H]3c2ccc(O)c(OC)c2)ccc1O (relative stereo) [Compound 3, epipinoresinol] the IC50 (AChE; IC50 (AChE inhibition)) was 242 ± 9 nM, the inhibition at 0.01 µM (AChE) was 23 ± 1% and the inhibition at 0.1 µM (AChE) was 44 ± 1%. For the same compound, the inhibition at 1 µM (AChE) was 60 ± 2%, the inhibition at 10 µM (AChE) was 82 ± 3% and the “increase in telomerase activity” value (TERT) was “a little weak”. For the same compound, the “TERT Concentration Mean ± SD” value (TERT) was 2.0 ± 0.06 ng/mL and the “Relative Increase” value (TERT) was 1.18.

For COc1cc([C@H]2OC[C@H]3[C@@H]2CO[C@@H]3c2cc(OC)c3c(c2)[C@H](CO)[C@@H](c2ccc(O[C@@H]4O[C@H](CO)[C@@H](O)[C@H](O)[C@H]4O)c(OC)c2)O3)ccc1O [Compound 1, anisacanthin], the IC50 (AChE; [3]) was 85 nM, the inhibition at 0.01 µM (AChE) was 24 ± 1% and the inhibition at 0.1 µM (AChE) was 61 ± 1%. For the same compound, the inhibition at 1 µM (AChE) was 75 ± 2%, the inhibition at 10 µM (AChE) was 83 ± 2% and the “increase in telomerase activity” value (TERT) was 1.64 fold. The “TERT Concentration Mean ± SD” value (TERT) was 2.8 ± 0.04 ng/mL and the “Relative Increase” value (TERT) was 1.64.

For COc1cc([C@H]2OC[C@H]3[C@@H]2CO[C@@H]3c2ccc(O)c(OC)c2)ccc1O (relative stereo) [Compound 2, pinoresinol], the “effect on acetylcholinesterase activity” value (acetylcholinesterase) is given as “inhibited the activity of acetylcholinesterase in a concentration-dependent manner”, the IC50 (AChE; IC50 (AChE inhibition)) is given as 292 ± 9 nM and the inhibition at 0.01 µM (AChE) is given as 26 ± 1%. The inhibition at 0.1 µM (AChE) was 41 ± 1%, the inhibition at 1 µM (AChE) was 60 ± 3% and the inhibition at 10 µM (AChE) was 75 ± 2%. The “effect on induction of hippocampal long-term potentiation” value [2] was “aided the induction of hippocampal long-term potentiation”, the “effect on calcium influx” value (neuro2a cells) was “aided calcium influx into neuro2a cells” and the “increase in telomerase activity” value (TERT) was “a little weak”. The “TERT Concentration Mean ± SD” value (TERT) was 2.2 ± 0.03 ng/mL, the “Relative Increase” value (TERT) was 1.28 and the “effect on memory decline in dementia model” value (memory decline) was “improved memory decline”.

For phillyrin [Compound 4], the “% Inhibition of AChE” value (AChE; 0.01 µM) was 26 ± 3%, the “% Inhibition of AChE” value (AChE; 0.1 µM) was 41 ± 2% and the “% Inhibition of AChE” value (AChE; 1 µM) was 64 ± 2%. For the same compound, the “% Inhibition of AChE” value (AChE; 10 µM) was 73 ± 2%, the “increase in telomerase activity” value (TERT) was 1.72 fold and 1.71 fold and the “TERT Concentration Mean ± SD” value (TERT) was 2.9 ± 0.06 ng/mL. The “Relative Increase” value (TERT) was 1.72.

Source: article PMC10820861, “Furofuranoid-Type Lignans and Related Phenolics from Anisacanthus virgularis (Salisb.) Nees with Promising Anticholinesterase and Anti-Ageing Properties: A Study Supported by Molecular Modelling” (Plants, 2024)
